Experimental findings from US10500198B2, “Bis-benzylidine piperidone proteasome inhibitor with anticancer activity” (The Johns Hopkins University, priority 2013, dated 2019) are described below.

Structures are written as SMILES.

For one data set, the system named is HPV transformed cells. Description: Cell viability, HPV transformed cells. In kind it is cell-based. As to conditions: antiproliferative effects, 48-hr treatment; read-out: IC50 against HPV transformed cells. How it is done:
(§1) Cell viability was assayed using CellTiter 960 AQueous One Solution Reagent (Promega, Madison, Wis.). Cells seeded at the concentration of 1,000 cells/well for HeLa, 5,000 cells/well for ES2 and HCT116 and 10,000-20,000 cells/well for other cell lines in 100 μL medium in 96-well plate were treated with RA series compounds at specified concentrations. After the indicated periods, cells were incubated according to the manufacturer's protocol with the MTS labeling mixture for 1-2 hr and absorbance at 490 nm measured using a Benchmark Plus microplate spectrophotometer (BIO-RAD).

Data set [1] concerns NCI-H929-GFP-luc human tumor cells. Nature of the data set: NCI-H929 MM tumor in NOG mice. The format is in vivo, mouse. As to conditions: 20 mg/kg/day i.p., 7 days. The source says: (§2) Prior to and at the end of the treatment, mice were imaged for bioluminescence. […] The mice were imaged before and at the end of the treatment for bioluminescence levels. We have previously described the susceptibility of human ovarian cancer lines to proteasome inhibition. […] Prior to and 7 and 14 days after initiation of treatment, the mice were imaged for luciferase activity.
(§3) For TC-1 tumors, C57BL/6 mice (8/group) were challenged subcutaneously with 5×10^4 TC-1 cells/mice. Tumors grew for approximately 7 days until they were palpable, whereupon the mice were weighed and treatment was initiated. Tumor size was measured with a digital caliper and calculated based on the formula: [largest diameter×(perpendicular diameter)2]π/6. Nude mice (8 per group) were inoculated with 1×10^6 EΩ-Luciferase cells i.p. in 100 μL PBS. At day 3 mice were imaged for basal level luminescence expression. […] NOG mice (5 per group) were inoculated with 1×10^6 NCI-H929-GFP-Luc cells i.v., and after 4 weeks, mice were imaged for their luciferase activity and divided into two groups.

For the next data set, the system named is HOK-16B. Nature of the data set: Cell viability after 48-hr treatment (Table 1). The format is cell-based. As to conditions: 48-hr treatment; XTT assay; read-out: IC50, HOK-16B. The procedure, abridged:
(§4)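 Cells were seeded at 5,000/well for ES2 and 10,000-20,000/well for other lines, then treated 48 h with compounds at specified concentrations. Viability was measured by MTS reduction (1-2 h) and absorbance at 490 nm.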

A further data set deals with CasKi. Description: Cell viability after 48-hr treatment (Table 1). In kind it is cell-based. As to conditions: 48-hr treatment; XTT assay; read-out: IC50, CasKi. On the technique in general: Tetrazolium dyes change colour on reduction, which living cells bring about.
The test system of another data set is SiHa. Description: Cell viability after 48-hr treatment (Table 1). As to conditions: 48-hr treatment; XTT assay; read-out: IC50, SiHa. In kind it is cell-based. The essentials: as §4
The subject of another data set is RPMI8226. Description: Cell viability after 48-hr treatment (Table 1). The format is cell-based. The note with it: XTT assay. The procedure, abridged:
(§5)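 Viable cells were then quantified by a 1-2 hr MTS reaction with absorbance measured at 490 nm.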

A further data set concerns HT3. Nature of the data set: Cell viability after 48-hr treatment (Table 1). The format is cell-based. As to conditions: 48-hr treatment; XTT assay; read-out: IC50, HT3. The procedure, abridged:
as §5

Another data set concerns HaCaT. Description: Cell viability after 48-hr treatment (Table 1). In kind it is cell-based. As to conditions: 48-hr treatment; XTT assay; read-out: IC50, HaCaT. The essentials:
as §5

The subject of a further data set is C33A. Description: Cell viability after 48-hr treatment (Table 1). In kind it is cell-based. As to conditions: 48-hr treatment; XTT assay; read-out: IC50, C33A. The procedure, abridged: as §5
The next data set concerns SKOV3. Nature of the data set: Cell viability after 48-hr treatment (Table 1). The format is cell-based. The note with it: 48-hr treatment; XTT assay; read-out: IC50, SKOV3. The procedure, abridged: as §5
In a further data set the test system is MM.1S. Nature of the data set: Cell viability after 48-hr treatment (Table 1). In kind it is cell-based. The note with it: XTT assay. The protocol: Cell viability was assayed using CellTiter 960 AQueous One Solution Reagent (Promega, Madison, Wis.). Cells seeded at the concentration of 1,000 cells/well for HeLa, 5,000 cells/well for ES2 and HCT116 and 10,000-20,000 cells/well for other cell lines in 100 μL medium in 96-well plate were treated with RA series compounds at specified concentrations. […]

For another data set, the system named is FaDu. Nature of the data set: Cell viability after 48-hr treatment (Table 1). The note with it: 48-hr treatment; XTT assay; read-out: IC50, FaDu. In kind it is cell-based. The essentials:
as §4

Data set [2] concerns RPMI-8226-V10R and ANBL6-V10R. Description: Cell viability of bortezomib-resistant and parental MM lines. The format is cell-based. The note with it: 48 hr treatment. The protocol: Actin was used as a loading control. […] In FIG. 9C-E, purified 20S proteasomes were treated for 30 min with or without compounds (1 μM) prior to the addition of the specific fluorogenic substrate for chymotryptic (9C), tryptic (9D) or PGPH (9E) hydrolytic proteasome capacities. […] DMSO was added to all samples to a final concentration of 0.1% (upper panel). The effect of DMSO is highlighted by including ubiquitin—AMC (0.5 μM) hydrolysis with 2 nM UCH37 lacking DMSO (orange, bottom panel). In FIG. 9H, purified 19S RP (500 nM) in buffer was treated with corresponding compounds 30 min at 37° C. and AMC cleavage was measured with a fluorometer for 20 min. Ubal was used as a positive control.
as §1

The next data set has as its system ES2-luciferase tumor. Nature of the data set: ES2-luciferase tumor in nude mice. The format is in vivo, mouse. As to conditions: 10 mg/kg i.p. every day, 14 days.
From the text: as §2, §3

A short description of data set [3]: Pharmacokinetic measurements, plasma. In kind it is in vivo, mouse. The note with it: 10 mg/kg i.p., BALB/c mice. The protocol: Tissue was harvested at 48 hr after single-dose intraperitoneal administration in non-tumor bearing mice. Blood was collected by cardiac puncture under anesthesia into heparinized syringes and centrifuged to obtain plasma. Tissues were rapidly dissected and snap frozen in liquid nitrogen. Samples were stored frozen at −70° C. until analysis. […] Tissue homogenates were prepared at a concentration of 200 mg/mL in PBS and further diluted 1:10 in mouse plasma before extraction using acetonitrile containing temazepam (100 ng/mL). Separation was achieved on Waters X-Terra™ C18 (50 mm×2.1 mm i.d., 3 μm) at room temperature using isocratic elution with acetonitrile/water mobile phase (70:30, v/v) containing 0.1% formic acid at a flow rate of 0.2 mL/min. […] Samples were quantitated over the assay range of 10 to 1000 ng/mL or 0.6 to 60 μg/g. […] Cmax and Tmax were the observed values from the mean data. The AUClast was calculated using the log-linear trapezoidal rule to the end of sample collection (AUClast) and extrapolated to infinity (AUC0-∞) by dividing the last quantifiable concentration by the terminal disposition rate constant (λz), which was determined from the slope of the terminal phase of the concentration-time profile. The half-life (T1/2) was determined by dividing 0.693 by λz. Relative bioavailability was calculated as follows: […]

A further data set deals with U266 cells. Nature of the data set: Active caspase-3 by FACS. In kind it is cell-based. As to conditions: 0.5 μM, 8 h. How it is done:
U266 cells were treated with RA195 (0.5 μM) and Bz(0.5 μM) for the period of 8 h. Cells were stained for PE-conjugated Caspase-3 antibody and measured active caspase-3 by FACS.
On the technique in general: A flow cytometer gives signals particle by particle.

For `Cl.N[C@@H](Cc1ccccc1)C(=O)N1CC(=Cc2ccc(Cl)c(Cl)c2)C(=O)C(=Cc2ccc(Cl)c(Cl)c2)C1` [RA190, 3,5-bis(3,4-dichlorobenzylidene)-1-(S-2-amino-3-phenyl)-piperidin-4-one-HCl salt], the IC50 (usually the concentration that inhibits the measured activity by half) was ≤ 0.3 µM with HPV transformed cells; 0.6 µM in the data set on HOK-16B; 0.3 µM in the data set with CasKi; 0.75 µM in the data set on SiHa; 0.1 µM with RPMI8226; > 5 µM with HT3. Further, the IC50 with HaCaT is > 2.5 µM; in the data set on C33A it was > 5 µM; in the data set with SKOV3 it was > 2.5 µM; with MM.1S it was 0.035 µM; in the data set on FaDu, > 2.5 µM. Also, the “antitumor activity (bioluminescence)” value in [1] was “potent antitumor activity”. Besides, the “efficacy against bortezomib-resistant derivative lines versus parental lines” value in [2] was “equally efficacious”. The “ES2 tumor growth (bioluminescence)” value in the data set on ES2-luciferase tumor is listed as “significantly inhibited”. Also, the AUC (usually the area under the concentration-time curve, a measure of exposure) in [3] turned out to be 4393 ng·h/mL. In addition, the C1/F in data set [3] amounted to 38.3 mL/min/kg. In data set [3], the maximum concentration (Cmax) (usually the maximum level reached in the sampled fluid or tissue) was 808 ng/mL. Also, in [3], the “T1/2,α (distribution half-life)” value turned out to be 4.2 h. The “T1/2,β (terminal half-life)” value in [3] turned out to be 25.5 h. For the same compound, the Ud/F in data set [3] is recorded as 83.61 L/kg.

With `Cl.NCCCC[C@H](NC(=O)OCC1c2ccccc2-c2ccccc21)C(=O)N1C/C(=C\c2ccc(Cl)c(Cl)c2)C(=O)/C(=C/c2ccc(Cl)c(Cl)c2)C1` [RA195], the “active caspase-3” value with U266 cells was “caused an increase in caspase-3 expression”.
